pIC50: −log10 of the molar value. Activity calls are given as the source filed them. The rule behind the calls is not given here.
What was measured:
[1] = system: HeLa; assay: cells; details: Homo sapiens, 72 h
Description: Cytotoxicity against human HeLa cells after 72 hrs by MTT assay

[2] = cells; details: Homo sapiens, HCT-116, 72 h
[3] = system: A549; assay: cells; details: Homo sapiens, A549, 72 h
Description: Cytotoxicity against human A549 cells after 72 hrs by MTT assay

[4] = biological target: Tubulin (Homo sapiens) (UniProt P68371+Q9H4B7+P0DPH7+P68366+Q13509+Q71U36+P04350+Q3ZCM7+P07437+P68363+Q9BQE3+Q6PEY2+Q13885+Q9BVA1+Q9BUF5); assay: Inhibition of tubulin in human A549 cells assessed as disruption of microtubules at 1 uM incubated for 6 hrs by immunofluorescence staining; assay type: cell-based
[5] = system: A549; assay: Induction of cell cycle arrest in human A549 cells assessed as accumulation at G2/M phase accumulation at 1 uM after 48 hrs by propidium iodide staining based flow cytometry; assay type: functional
[6] = biological target: Tubulin; assay: Inhibition of tubulin (unknown origin) polymerization after 1 hr by multiplate reader method; assay type: protein-complex assay, Homo sapiens
[7] = biological target: Tubulin; assay: Inhibition of colchicine binding to tubulin (unknown origin); assay type: protein-complex assay, Homo sapiens
[8] = system: A549; assay: Induction of apoptosis in human A549 cells at 1 uM after 24 to 72 hrs by propidium iodide staining based flow cytometry; assay type: functional, cell-based
[9] = system: A549; assay: Induction of growth arrest in human A549 cells assessed as MPM2 levels level at 1 uM after 6 to 48 hrs by immunofluorescence microscopy; assay type: functional, cell-based
[10] = system: A549; assay: Increase in polyploid cells in human A549 cells at 1 uM after 24 to 72 hrs by propidium iodide staining based flow cytometry; assay type: functional, cell-based
[11] = system: A549; assay: Induction of growth arrest in human A549 cells assessed as mitotic chromosomes level at 1 uM after 6 to 48 hrs by fluorescence microscopy; assay type: functional, cell-based

pIC50 [1] | pIC50 [2] | pIC50 [3] | SMILES | other results
5.72 | 5.65 | 5.39 | COc1cc2c(cc1C(=O)/C=C/c1ccccc1)SCO2 | –
– | – | 7.66 | COc1ccc(/C=C/C(=O)c2cc3c(cc2OC)SCO3)cc1O | –
5.49 | 5.07 | 5.04 | COc1cc2c(cc1C(=O)/C=C/c1ccc(O)cc1)SCO2 | –
< 5.00 | < 5.00 | < 5.00 | COc1ccc(/C=C/C(=O)c2cc3c(cc2OCC(=O)O)OCS3)cc1 | –
6.95 | 6.68 | 6.49 | COc1ccc(/C=C/C(=O)c2cc3c(cc2OC)OCS3)cc1F | –
< 5.00 | < 5.00 | < 5.00 | COc1cc2c(cc1C(=O)/C=C/c1ccc(OCC(=O)O)cc1)SCO2 | –
5.71 | 5.60 | 5.47 | COc1cc2c(cc1C(=O)/C=C/c1ccc(CCN(C)C)cc1)SCO2 | –
6.96 | 6.56 | 6.45 | COc1ccc(/C=C/C(=O)c2cc3c(cc2OC)OCS3)cc1 | inhibition [4]: Active; Activity [5]: Active; pIC50 [6]: 5.24; pIC50 [7]: 6.31; Activity [8]: Active; Activity [9]: Active; Activity [10]: Active; Activity [11]: Active
5.63 | 5.67 | 5.51 | COc1cc2c(cc1C(=O)/C=C/c1ccc(Br)cc1)SCO2 | –
5.75 | 5.68 | 5.52 | COc1cc2c(cc1C(=O)/C=C/c1ccc(Cl)cc1)SCO2 | –

Second part, the molecule before the results:

SMILES | pIC50 [1] | pIC50 [2] | pIC50 [3] | other results
COc1cccc2c1C(=O)c1c(O)c3c(c(O)c1C2=O)C[C@@](O)(C(=O)CO)C[C@@H]3O[C@H]1C[C@H](N)[C@H](O)[C@H](C)O1 [DOXORUBICIN] | 6.81 | 7.16 | 6.91 | –
COc1cc2c(cc1C(=O)/C=C/c1cc(OC)c(OC)c(OC)c1)SCO2 | 5.39 | 5.65 | 5.46 | –
O=C(/C=C/c1cccc(Cl)c1)c1c(O)ccc2c1SCO2 | 5.70 | 5.88 | 5.58 | –
COc1cc(OC)c(/C=C/C(=O)c2cc3c(cc2OCC(=O)O)OCS3)c(OC)c1 | < 5.00 | < 5.00 | < 5.00 | –
O=C(/C=C/c1ccccc1Cl)c1c(O)ccc2c1SCO2 | 5.51 | 5.78 | 5.51 | –
COc1ccc(/C=C/C(=O)c2c(O)ccc3c2SCO3)cc1F | 5.16 | 5.18 | 5.03 | –
COc1ccc(/C=C/C(=O)c2cc3c(cc2OCCN2CCOCC2)OCS3)cc1F | 6.15 | 5.91 | 5.37 | –
COc1cc2c(cc1C(=O)/C=C/c1cccc(OC)c1OC)SCO2 | 5.40 | 5.50 | 5.30 | –
O=C(/C=C/c1ccc(Cl)cc1Cl)c1cc2c(cc1OCCN1CCOCC1)OCS2 | 5.81 | 6.01 | 5.76 | –
CC(=O)O[C@H]1C(=O)[C@@]2(C)[C@H]([C@H](OC(=O)c3ccccc3)[C@]3(O)C[C@H](OC(=O)[C@H](O)[C@@H](NC(=O)c4ccccc4)c4ccccc4)C(C)=C1C3(C)C)[C@]1(OC(C)=O)CO[C@@H]1C[C@@H]2O [PACLITAXEL] | – | 8.40 | – | –
COc1ccc(/C=C\c2cc(OC)c(OC)c(OC)c2)cc1O [COMBRETASTATIN A4] | 8.52 | 8.40 | – | –
O=C(/C=C/c1ccc(Br)cc1)c1c(O)ccc2c1SCO2 | 5.58 | 5.54 | 5.41 | –
COc1ccc(/C=C/C(=O)c2c(O)ccc3c2SCO3)cc1 | 5.11 | 5.16 | 4.97 | –
COc1ccc(/C=C/C(=O)c2cc3c(cc2OC)SCO3)cc1 | – | – | – | pIC50 [6]: 5.38; pIC50 [7]: 6.97
COc1cc2c(cc1C(=O)/C=C/c1cc(Br)c(OC)c(OC)c1)SCO2 | 5.39 | 5.68 | 5.46 | –
COc1cc(/C=C/C(=O)c2cc3c(cc2OCC(=O)O)OCS3)cc(OC)c1OC | < 5.00 | < 5.00 | < 5.00 | –
COc1cc2c(cc1C(=O)/C=C/c1cccc(Cl)c1)SCO2 | 5.84 | 5.93 | 5.69 | –
COc1ccc(OC)c(/C=C/C(=O)c2cc3c(cc2OCCN2CCOCC2)OCS3)c1 | 5.62 | 5.84 | 5.57 | –
COc1cc(OC)c(/C=C/C(=O)c2cc3c(cc2OC)OCS3)c(OC)c1 | 6.82 | 6.45 | 6.51 | –
COc1ccc(/C=C/C(=O)c2cc3c(cc2OC)OCS3)cc1OC | 6.25 | 6.13 | 5.92 | –
COc1ccc(/C=C/C(=O)c2cc3c(cc2OCCN2CCOCC2)OCS3)cc1OC | 5.43 | 5.64 | 5.42 | –
CCCOc1cc2c(cc1C(=O)/C=C/c1ccc(OC)c(O)c1)OCS2 | – | – | 8.05 | –
CN(C)CCOc1ccc(/C=C/C(=O)c2c(O)ccc3c2SCO3)cc1 | 5.82 | 5.83 | 5.69 | –
COc1ccc(/C=C/C(=O)c2c(O)ccc3c2SCO3)cc1OC | 5.34 | 5.55 | 5.25 | –
O=C(/C=C/c1ccccc1)c1c(O)ccc2c1SCO2 | 5.56 | 5.66 | 5.44 | –
CCCOc1cc2c(cc1C(=O)/C=C/c1ccc(OC)c(O)c1)SCO2 | 8.30 | 7.92 | 7.92 | –
COc1cc(/C=C/C(=O)c2cc3c(cc2OCCN2CCOCC2)OCS3)cc(OC)c1OC | 5.63 | 5.84 | 5.62 | –

Source: ChEMBL document CHEMBL3352251, “Structural factors affecting affinity of cytotoxic oxathiole-fused chalcones toward tubulin” (Eur J Med Chem, 2015)
